Results from patent US12180207B2 (ARRAY BIOPHARMA INC., priority 2018, dated 2024).

Tests used:
[1] = biological target: phosphorylated FGFR3 (SEQ ID NO: 5, amino acids 449 to 759) (Homo sapiens (Human), UniProt P22607); assay: FGFR enzyme binding assay (HTRF tracer displacement), FGFR3; conditions: 5 nM phosphorylated FGFR3, average of multiple determinations if made
How it was run: (§1)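 Kinase and tracer were incubated with compound for 60 minutes at 22° C. Tracer displacement was then measured by HTRF, and results were expressed as POC with 1 μM control inhibitor defining full displacement.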

[2] = biological target: dephosphorylated FGFR1 (SEQ ID NO: 1, amino acids 458 to 765) (Homo sapiens (Human), UniProt P11362); assay: FGFR enzyme binding assay (HTRF tracer displacement), FGFR1; conditions: 5 nM dephosphorylated FGFR1, average of multiple determinations if made
Chain of dephosphorylated FGFR1 (SEQ ID NO: 1, amino acids 458 to 765) (P11362 458-765): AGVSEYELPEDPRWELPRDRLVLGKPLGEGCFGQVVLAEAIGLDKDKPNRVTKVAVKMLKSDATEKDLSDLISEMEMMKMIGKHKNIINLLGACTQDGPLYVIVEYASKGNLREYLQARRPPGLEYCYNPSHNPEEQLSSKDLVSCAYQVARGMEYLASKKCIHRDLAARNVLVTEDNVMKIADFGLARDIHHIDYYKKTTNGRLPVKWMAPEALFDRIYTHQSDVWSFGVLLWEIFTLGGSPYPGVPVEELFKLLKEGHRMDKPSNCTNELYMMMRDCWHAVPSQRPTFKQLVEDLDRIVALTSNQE
How it was run: as §1

[3] = biological target: FGFR1 (SEQ ID NO: 1, amino acids 458-765) (Homo sapiens (Human), UniProt P11362); assay: LC/MS FGFR1 kobs assay (covalent protein modification); type: binding; conditions: 500 nM FGFR1, 3 μM compound
Chain of FGFR1 (SEQ ID NO: 1, amino acids 458-765) (P11362 458-765): as above
How it was run: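 Covalent labeling of FGFR1 kinase domain (aa 458-765) tracked over time by intact-protein LC/MS after formic acid quench. kobs derived by fitting DMSO-normalized percent unmodified FGFR1 to an exponential decay model.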

[4] = biological target: recombinant human FGFR3 (amino acids R397-T806) (Homo sapiens (Human), UniProt P22607); assay: FGFR3 enzyme activity assay (LanthaScreen TR-FRET); type: biochemical; conditions: 25 μM ATP, 10 min incubation at 22° C., average of multiple determinations if made, read-out: FGFR3 Enz FRET IC50
Chain of recombinant human FGFR3 (amino acids R397-T806) (P22607 397-806): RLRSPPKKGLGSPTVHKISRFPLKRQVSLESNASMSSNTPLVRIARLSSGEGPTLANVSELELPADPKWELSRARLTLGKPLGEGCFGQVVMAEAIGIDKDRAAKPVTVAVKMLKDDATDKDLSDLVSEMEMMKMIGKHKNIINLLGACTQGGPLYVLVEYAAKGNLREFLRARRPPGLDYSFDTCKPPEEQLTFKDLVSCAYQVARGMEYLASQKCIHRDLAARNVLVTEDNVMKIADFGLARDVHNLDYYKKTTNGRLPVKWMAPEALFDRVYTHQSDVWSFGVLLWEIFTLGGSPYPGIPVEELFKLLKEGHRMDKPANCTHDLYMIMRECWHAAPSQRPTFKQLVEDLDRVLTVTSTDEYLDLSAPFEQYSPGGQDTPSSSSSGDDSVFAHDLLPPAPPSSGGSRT
How it was run: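 GST-HIS6-tagged human FGFR3 (R397-T806) was reacted with 100 nM Alexa Fluor 647-Poly-GT substrate and 25 μM ATP plus compound in HEPES/MgCl2/Triton buffer, pH 7.5, 2% DMSO, for 10 min at 22 °C.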

[5] = biological target: FGFR3 (SEQ ID NO: 5, amino acids 449-759) (Homo sapiens (Human), UniProt P22607); assay: LC/MS FGFR3 kobs assay (covalent protein modification); type: binding; conditions: 500 nM FGFR3, 3 μM compound
Chain of FGFR3 (SEQ ID NO: 5, amino acids 449-759) (P22607 449-759): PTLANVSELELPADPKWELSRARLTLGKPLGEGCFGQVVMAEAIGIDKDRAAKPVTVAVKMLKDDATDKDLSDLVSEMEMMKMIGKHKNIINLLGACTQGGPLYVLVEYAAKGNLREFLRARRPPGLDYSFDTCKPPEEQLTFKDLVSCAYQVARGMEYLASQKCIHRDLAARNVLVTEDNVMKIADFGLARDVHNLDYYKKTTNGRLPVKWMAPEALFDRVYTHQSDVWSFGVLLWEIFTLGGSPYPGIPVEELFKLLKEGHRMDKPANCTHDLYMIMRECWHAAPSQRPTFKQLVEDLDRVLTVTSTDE
How it was run: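 Each time-point sample was quenched in 0.4% formic acid and analyzed by Q-TOF LC/MS. Deconvoluted signals gave percent modified and unmodified protein, normalized to the DMSO control, and the decay of unmodified protein yielded kobs.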

[6] = biological target: recombinant human FGFR1 catalytic domain (amino acids 308-731) (Homo sapiens (Human), UniProt P11362); assay: FGFR1 enzyme activity assay (LanthaScreen TR-FRET); type: biochemical; conditions: 20 min incubation at 22° C., average of multiple determinations if made, read-out: FGFR1 Enz FRET IC50
Chain of recombinant human FGFR1 catalytic domain (amino acids 308-731) (P11362 other isoform, or with tags, fused parts or gaps): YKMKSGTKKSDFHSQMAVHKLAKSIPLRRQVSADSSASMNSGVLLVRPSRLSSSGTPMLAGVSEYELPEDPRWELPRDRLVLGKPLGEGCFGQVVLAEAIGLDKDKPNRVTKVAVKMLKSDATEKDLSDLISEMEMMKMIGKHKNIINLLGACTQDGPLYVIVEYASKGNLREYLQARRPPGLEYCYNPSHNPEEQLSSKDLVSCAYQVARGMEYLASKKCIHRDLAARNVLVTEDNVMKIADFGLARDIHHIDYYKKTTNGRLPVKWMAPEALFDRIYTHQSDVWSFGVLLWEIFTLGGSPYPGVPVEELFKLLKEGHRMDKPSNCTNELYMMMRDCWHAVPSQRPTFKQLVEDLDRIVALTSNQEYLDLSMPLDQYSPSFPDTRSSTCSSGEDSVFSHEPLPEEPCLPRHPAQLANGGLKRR
How it was run: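 His-tagged FGFR1 kinase domain with 100 nM Alexa Fluor 647-poly-GT peptide and ATP in pH 7.5 HEPES/MgCl2 buffer with 2% DMSO, 20 min at 22 °C. Quenched with EDTA plus 2 nM Eu-PY20 antibody and read after 60 min. IC50 comes from a 4-parameter fit of percent of control.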

Chain of phosphorylated FGFR3 (SEQ ID NO: 5, amino acids 449 to 759) (P22607 449-759): as the sequence (P22607 449-759) above

Compound	IC50 [1] [nM]	IC50 [2] [nM]	FGFR1 Enz kobs [3] [min⁻¹]	IC50 [4] [nM]	FGFR3 Enz kobs [5] [min⁻¹]	IC50 [6] [nM]
C=CC(=O)Nc1ccc(C(=O)N2CC[C@H](n3cc(-c4cc(OC)c5c(C#N)cnn5c4)cn3)C2)cc1OC [Example 71, (S)-N-(4-(3-(4-(3-cyano-4-methoxypyrazolo[1,5-a]pyridin-6-yl)-1H-pyrazol-1-yl)pyrrolidine-1-carbonyl)-2-methoxyphenyl)acryla72 mide]	18	147	0.00457	6	0.02545	18
C=CC(=O)N1CC(C(=O)N2CC[C@H](n3cc(-c4cc(OC)c5c(C#N)cnn5c4)cn3)C2)C1 [Example 73, (S)-6-(1-(1-(1-acryloylazetidine-3-carbonyl)pyrrolidin-3-yl)-1H-pyrazol-4-yl)-4-methoxypyrazolo[1,5-a]pyridine-3-carbonitrile]	7	58	0.00108	4	0.00908	20
C=CC(=O)N1CC[C@H](C(=O)N2CC(n3cc(-c4cc(OC)c5c(C#N)cnn5c4)cn3)C2)C1 [Example 76, (S)-6-(1-(1-(1-acryloylpyrrolidine-3-carbonyl)azetidin-3-yl)-1H-pyrazol-4-yl)-4-methoxypyrazolo[1,5-a]pyridine-3-carbonitrile]	55	409	0.0007	13	0.00317	52
C=CC(=O)N1CC(C(=O)N2CC(n3cc(-c4cc(OC)c5c(C#N)cnn5c4)cn3)C2)C1 [Example 78, 6-(1-(1-(1-acryloylazetidine-3-carbonyl)azetidin-3-yl)-1H-pyrazol-4-yl)-4-methoxypyrazolo[1,5-a]pyridine-3-carbonitrile]	8	98	0.00146	12	0.01629	17
C=CC(=O)N1CC(CN2CC(n3cc(-c4cc(OC)c5c(C#N)cnn5c4)cn3)C2)C1 [Example 81, 6-(1-(1-((1-acryloylazetidin-3-yl)methyl)azetidin-3-yl)-1H-pyrazol-4-yl)-4-methoxypyrazolo[1,5-a]pyridine-3-carbonitrile]	60	186	0.00086	9	0.00615	31
C=CC(=O)N1CCC(C(=O)N2CCC(n3ncc(-c4cc(OC)c5c(C#N)cnn5c4)c3C)CC2)CC1 [Example 82, 6-(1-(1-(1-acryloylpiperidine-4-carbonyl)piperidin-4-yl)-5-methyl-1H-pyrazol-4-yl)-4-methoxypyrazolo[1,5-a]pyridine-3-carbonitrile]	23	374	0.00034	10	0.00319	73
C=CC(=O)N1CC[C@@H](C(=O)N2CCC(n3ncc(-c4cc(OC)c5c(C#N)cnn5c4)c3C)CC2)C1 [Example 83, (R)-6-(1-(1-(1-acryloylpyrrolidine-3-carbonyl)piperidin-4-yl)-5-methyl-1H-pyrazol-4-yl)-4-methoxypyrazolo[1,5-a]pyridine-3-carbonitrile]	14	420	0.00058	7	0.00547	77
C=CC(=O)N1CC(C(=O)N2CCC(n3ncc(-c4cc(OC)c5c(C#N)cnn5c4)c3C)CC2)C1 [Example 84, 6-(1-(1-(1-acryloylazetidine-3-carbonyl)piperidin-4-yl)-5-methyl-1H-pyrazol-4-yl)-4-methoxypyrazolo[1,5-a]pyridine-3-carbonitrile]	22	777	0.00183	6	0.02394	100
